Test system: HIV-1 viral population of patient sample 848
Test: Resistance test vector phenotypic drug susceptibility assay of patient sample 848
Type: cell-based
Conditions: mixed viral population in sample 848, FIG. 3
From the text: Patient-derived segment(s) corresponding to the HIV protease and reverse transcriptase coding regions were amplified by the reverse transcription-polymerase chain reaction method (RT-PCR) using viral RNA isolated from viral particles present in the plasma or serum of HIV-infected individuals as follows. Viral RNA was isolated from the plasma or serum using oligo-dT magnetic beads (Dynal Biotech, Oslo, Norway), followed by washing and elution of viral RNA. The RT-PCR protocol was divided into two steps. A retroviral reverse transcriptase (e.g. Moloney MuLV reverse transcriptase (Roche Molecular Systems, Inc., Branchburg, N.J.; Invitrogen, Carlsbad, Calif.), or avian myeloblastosis virus (AMV) reverse transcriptase (Roche Molecular Systems, Inc., Branchburg, N.J.), or) was used to copy viral RNA into cDNA. The cDNA was then amplified using a thermostable DNA polymerase (e.g. Taq (Roche Molecular Systems, Inc., Branchburg, N.J.), Tth (Roche Molecular Systems, Inc., Branchburg, N.J.), PRIMEZYME™ (isolated from Thermus brockianus, Biometra, Gottingen, Germany)) or a combination of thermostable polymerases as described for the performance of “long PCR” Barnes, W. M., 1994, Proc. Natl. Acad. Sci, USA 91, 2216-20) (e.g. Expand High Fidelity PCR System (Taq+Pwo), (Boehringer Mannheim. Indianapolis, Ind.); GENEAMP XL™ PCR kit (Tth+Vent), (Roche Molecular Systems, Inc., Branchburg, N.J.); or ADVANTAGE II®, Clontech, Palo Alto, Calif.)
Resistance test vectors incorporating the “test” patient-derived segments were constructed as described in U.S. Pat. No. 5,837,464 using an amplified DNA product of 1.5 kB prepared by RT-PCR using viral RNA as a template and oligonucleotides PDS Apa, PDS Age, PDS PCR6, Apa-gen, Apa-c, Apa-f, Age-gen, Age-a, RT-ad, RT-b, RT-c, RT-f, and/or RT-g as primers, followed by digestion with ApaI and AgeI or the isoschizomer PinA1. To ensure that the plasmid DNA corresponding to the resultant fitness test vector comprises a representative sample of the HIV viral quasi-species present in the serum of a given patient, many (>250) independent E. coli transformants obtained in the construction of a given fitness test vector are pooled and used for the preparation of plasmid DNA.
A packaging expression vector encoding an amphotrophic MuLV 4070A env gene product enables production in a resistance test vector host cell of resistance test vector viral particles which can efficiently infect human target cells. Resistance test vectors encoding all HIV genes with the exception of env were used to transfect a packaging host cell (once transfected the host cell is referred to as a fitness test vector host cell). The packaging expression vector which encodes the amphotrophic MuLV 4070A env gene product is used with the resistance test vector to enable production in the resistance test vector host cell of infectious pseudotyped resistance test vector viral particles.
Drug resistance tests performed with resistance test vectors were carried out using packaging host and target host cells consisting of the human embryonic kidney cell line 293. See U.S. Pat. No. 5,837,464.
Resistance tests were carried out with resistance test vectors using two host cell types. Resistance test vector viral particles were produced by a first host cell (the resistance test vector host cell) that was prepared by transfecting a packaging host cell with the resistance test vector and the packaging expression vector. The resistance test vector viral particles were then used to infect a second host cell (the target host cell) in which the expression of the indicator gene is measured.
The resistance test vectors containing a functional luciferase gene cassette were constructed as described above and host cells were transfected with the resistance test vector DNA. […]

SMILES	phenotypic resistance score of the viral population
CC(C)CN(C[C@@H](O)[C@H](Cc1ccccc1)NC(=O)O[C@H]1CCOC1)S(=O)(=O)c1ccc(N)cc1 [AMP, amprenavir]	resistant
CC(C)(C)NC(=O)[C@@H]1CN(Cc2cccnc2)CCN1C[C@@H](O)C[C@@H](Cc1ccccc1)C(=O)N[C@H]1c2ccccc2C[C@H]1O [IDV, indinavir]	resistant
Cc1cccc(C)c1OCC(=O)N[C@@H](Cc1ccccc1)[C@@H](O)C[C@H](Cc1ccccc1)NC(=O)[C@H](C(C)C)N1CCCNC1=O [LPV, lopinavir]	resistant
Cc1c(O)cccc1C(=O)N[C@@H](CSc1ccccc1)[C@H](O)CN1C[C@H]2CCCC[C@H]2C[C@H]1C(=O)NC(C)(C)C [NFV, nelfinavir]	resistant
CC(C)c1nc(CN(C)C(=O)N[C@H](C(=O)N[C@@H](Cc2ccccc2)C[C@H](O)[C@H](Cc2ccccc2)NC(=O)OCc2cncs2)C(C)C)cs1 [RTV, ritonavir]	resistant
CC(C)(C)NC(=O)[C@@H]1C[C@@H]2CCCC[C@@H]2CN1C[C@@H](O)[C@H](Cc1ccccc1)NC(=O)[C@H](CC(N)=O)NC(=O)c1ccc2ccccc2n1 [SQV, saquinavir]	resistant

Source: patent US20090087841A1, “METHODS AND COMPOSITIONS FOR D[…] HIV-1 TO PROTEASE INHIBITORS” (Monogram Biosciences, Inc., priority 2005, published 2009)
